Assay [1] has as its system PDGFRβ signaling (PDGFRβ autophosphorylation, Shp2 phosphorylation) in HEK293 cells expressing human PDGFR. In words: Western blot of PDGFRβ signaling in HEK293 cell line model. In kind it is cell-based. The note with it: 20 ng/ml PDGF, FIG. 1. On the procedure:
FIG. 1 represents Western-blot analysis result of the compounds of Examples 1 and 2 in relation to inhibition of PDGFRβ and p-SHP2 signalling in HEK293 cells expressing PDGFRβ.
Human Embryonic kidney cells (HEK293) were constructed to express human PDGFRWT under the control of constitutive CMV promoter. Cells were grown in the presence of 20 ng/ml PDGF (the ligand for the PDGFRβ) to activate the PDGFRβ. Different concentrations of the compounds of Examples 1 and 2 were added to study their effect on the PDGFRβ-mediated signaling. Autophosphorylation of PDGFRβ and Shp2 phosphorylation were monitored by Western blotting and were used as the markers for PDGFRβ signaling. β-Actin was used as an internal control.
On the technique in general: A western blot detects proteins with antibodies after separation by electrophoresis.

For assay [2], the system named is BA/F3 cells expressing PDGFR. In words: Cell viability by MTS assay (MTS Assay 1). In kind it is cell-based. The note with it: for Activity compared to the imatinib and quizartinib controls (cell viability): MTS assay, FIGS. 2 and 3; for IC50: Mus musculus, BaF3, read-out: MTS Assay 1: concentration of compound required to reduce cell viability to 50%. As to the method: FIG. 2 illustrates the effect of the compounds of Examples 1 to 4 on Ba/F3 cells expressing PDGFR. Results for imatinib and quizartinib are provided as positive controls.
(§1) The effect of the compounds on cell viability were determined using MTS assay. MTS Cell Proliferation Assay Kit is a colorimetric method for sensitive quantification of viable cells in proliferation and cytotoxicity assay. The method is based on the reduction of MTS tetrazolium compound by viable cells to generate a colored formazan product that is soluble in cell culture media. BA/F3 cells expressing the receptor tyrosine kinase (either PDGFR [MTS Assay 1] or Flt3 [MTS Assay 2]) were cultured in standard culture conditions in a 96-well microtiter plate (final volume of 200 μl/well) in the absence or presence of the compound to be tested and were incubated for 20-48 hrs. MTS Reagent (20 μl/well) was added into each well & incubated for 0.5-4 hours at 37° C. in standard culture conditions. Absorbance at 490 nm was recorded using a plate reader.
(§2) Results are shown in FIGS. 2 and 3, and Table 2 (where IC50 indicates the concentration of compound required to reduce cell viability to 50%).
(§3) For the MTS Assay, the result indicates the concentration of compound required to reduce cell viability to 50%.
A general note: Tetrazolium dyes change colour on reduction, which living cells bring about.

Assay [3] addresses T1, BA/F3 cells expressing Flt3 (Homo sapiens, UniProt P36888, cells depend on it, form not given).
T1 sequence (P36888 1-993): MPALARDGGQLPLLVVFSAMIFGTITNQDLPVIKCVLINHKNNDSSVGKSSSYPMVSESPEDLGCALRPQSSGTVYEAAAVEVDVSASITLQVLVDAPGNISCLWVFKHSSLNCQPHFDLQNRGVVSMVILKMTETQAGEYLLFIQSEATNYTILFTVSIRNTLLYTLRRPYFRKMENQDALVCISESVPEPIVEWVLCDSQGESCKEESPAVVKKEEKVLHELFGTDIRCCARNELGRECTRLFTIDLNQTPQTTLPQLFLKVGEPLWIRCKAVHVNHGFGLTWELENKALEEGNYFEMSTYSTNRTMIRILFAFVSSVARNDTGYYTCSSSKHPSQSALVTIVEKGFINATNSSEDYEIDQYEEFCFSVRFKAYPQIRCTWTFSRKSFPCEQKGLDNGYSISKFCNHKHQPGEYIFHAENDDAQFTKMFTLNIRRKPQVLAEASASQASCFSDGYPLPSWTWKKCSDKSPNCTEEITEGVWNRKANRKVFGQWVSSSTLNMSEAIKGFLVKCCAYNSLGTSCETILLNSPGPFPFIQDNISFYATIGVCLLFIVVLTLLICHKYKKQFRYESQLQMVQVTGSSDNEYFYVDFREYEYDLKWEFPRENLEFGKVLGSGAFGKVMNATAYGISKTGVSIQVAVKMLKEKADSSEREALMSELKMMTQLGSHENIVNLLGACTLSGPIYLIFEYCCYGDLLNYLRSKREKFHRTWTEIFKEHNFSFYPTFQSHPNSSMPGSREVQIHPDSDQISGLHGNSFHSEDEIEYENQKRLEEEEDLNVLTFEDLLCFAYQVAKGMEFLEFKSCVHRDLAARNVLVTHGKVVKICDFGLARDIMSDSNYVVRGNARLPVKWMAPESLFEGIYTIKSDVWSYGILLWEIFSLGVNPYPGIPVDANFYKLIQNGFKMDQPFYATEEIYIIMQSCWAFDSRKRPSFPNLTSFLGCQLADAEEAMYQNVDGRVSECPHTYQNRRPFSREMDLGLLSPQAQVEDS
Put plainly: Cell viability by MTS assay (MTS Assay 2). In kind it is cell-based. As to conditions: BA/F3 cells expressing Flt3, 20-48 hrs; symbol after the slash; read-out: MTS Assay 2: concentration of compound required to reduce cell viability to 50%. On the procedure: FIG. 3 illustrates the effect of the compounds of Examples 5 to 7 on Ba/F3 cells expressing Flt3 kinase. Results for imatinib (negative control) and quizartinib (positive control) are also provided.
as §1, §2, §3

Assay [4] deals with T2, Flt3 (Homo sapiens, UniProt P36888).
T2 sequence (P36888 27-993): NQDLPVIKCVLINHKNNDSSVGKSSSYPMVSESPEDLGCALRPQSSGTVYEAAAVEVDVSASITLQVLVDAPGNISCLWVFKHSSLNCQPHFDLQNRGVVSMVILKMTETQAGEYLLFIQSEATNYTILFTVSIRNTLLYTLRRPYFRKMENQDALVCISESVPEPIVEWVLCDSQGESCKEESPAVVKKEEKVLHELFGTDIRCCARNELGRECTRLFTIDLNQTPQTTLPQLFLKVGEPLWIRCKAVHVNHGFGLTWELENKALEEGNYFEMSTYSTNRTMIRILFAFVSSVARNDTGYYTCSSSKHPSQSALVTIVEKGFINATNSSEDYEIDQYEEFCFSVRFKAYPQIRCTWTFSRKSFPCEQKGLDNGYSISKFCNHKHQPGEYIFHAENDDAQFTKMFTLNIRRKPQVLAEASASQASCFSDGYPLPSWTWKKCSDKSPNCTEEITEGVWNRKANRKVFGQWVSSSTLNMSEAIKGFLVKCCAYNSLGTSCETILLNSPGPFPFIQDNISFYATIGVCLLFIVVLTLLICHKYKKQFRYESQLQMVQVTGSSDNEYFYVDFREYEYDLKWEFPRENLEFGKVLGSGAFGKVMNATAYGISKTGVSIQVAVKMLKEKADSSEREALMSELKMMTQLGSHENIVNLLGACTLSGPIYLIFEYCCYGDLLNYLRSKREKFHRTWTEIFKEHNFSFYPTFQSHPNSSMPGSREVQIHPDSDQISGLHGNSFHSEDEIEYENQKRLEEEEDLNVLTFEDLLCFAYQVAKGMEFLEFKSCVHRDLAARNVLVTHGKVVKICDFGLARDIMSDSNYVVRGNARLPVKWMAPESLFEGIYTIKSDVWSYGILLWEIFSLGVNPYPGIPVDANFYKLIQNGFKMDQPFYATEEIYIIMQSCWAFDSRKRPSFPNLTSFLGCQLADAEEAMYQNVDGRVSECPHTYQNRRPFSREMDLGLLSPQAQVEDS
In words: In vitro kinase assay ([γ-33P]-ATP). In kind it is biochemical. The note with it: ATP at apparent ATP-Km of the kinase. On the procedure:
(§4) To determine the inhibitory activity of compounds, in vitro kinase assays were performed on respective enzymes purified from Sf9 insect cells or E. coli as recombinant GST-fusion proteins or His-tagged proteins.

Assay [5] deals with CDK19 (Homo sapiens, UniProt Q9BWU1). In words: In vitro kinase assay ([γ-33P]-ATP). As to conditions: ATP at apparent ATP-Km of the kinase. In kind it is biochemical. On the procedure: as §4
For assay [6], the target named is CDK8 (Homo sapiens, UniProt P49336). Put plainly: In vitro kinase assay ([γ-33P]-ATP). In kind it is biochemical. The note with it: ATP at apparent ATP-Km of the kinase. On the procedure:
as §4

The target in assay [7] is PDGFR-α (Homo sapiens, UniProt P16234). Put plainly: In vitro kinase assay ([γ-33P]-ATP). As to conditions: ATP at apparent ATP-Km of the kinase. In kind it is biochemical. On the procedure:
as §4

Assay [8] addresses PDGFR-β (Homo sapiens, UniProt P09619). In words: In vitro kinase assay ([γ-33P]-ATP). In kind it is biochemical. The note with it: ATP at apparent ATP-Km of the kinase. As to the method:
as §4

The target of assay [9] is VEGFR-2 (Homo sapiens, UniProt P35968). Put plainly: In vitro kinase assay ([γ-33P]-ATP). In kind it is biochemical. The note with it: ATP at apparent ATP-Km of the kinase. As to the method:
as §4

Sequence of VEGFR-2 (P35968 20-1356): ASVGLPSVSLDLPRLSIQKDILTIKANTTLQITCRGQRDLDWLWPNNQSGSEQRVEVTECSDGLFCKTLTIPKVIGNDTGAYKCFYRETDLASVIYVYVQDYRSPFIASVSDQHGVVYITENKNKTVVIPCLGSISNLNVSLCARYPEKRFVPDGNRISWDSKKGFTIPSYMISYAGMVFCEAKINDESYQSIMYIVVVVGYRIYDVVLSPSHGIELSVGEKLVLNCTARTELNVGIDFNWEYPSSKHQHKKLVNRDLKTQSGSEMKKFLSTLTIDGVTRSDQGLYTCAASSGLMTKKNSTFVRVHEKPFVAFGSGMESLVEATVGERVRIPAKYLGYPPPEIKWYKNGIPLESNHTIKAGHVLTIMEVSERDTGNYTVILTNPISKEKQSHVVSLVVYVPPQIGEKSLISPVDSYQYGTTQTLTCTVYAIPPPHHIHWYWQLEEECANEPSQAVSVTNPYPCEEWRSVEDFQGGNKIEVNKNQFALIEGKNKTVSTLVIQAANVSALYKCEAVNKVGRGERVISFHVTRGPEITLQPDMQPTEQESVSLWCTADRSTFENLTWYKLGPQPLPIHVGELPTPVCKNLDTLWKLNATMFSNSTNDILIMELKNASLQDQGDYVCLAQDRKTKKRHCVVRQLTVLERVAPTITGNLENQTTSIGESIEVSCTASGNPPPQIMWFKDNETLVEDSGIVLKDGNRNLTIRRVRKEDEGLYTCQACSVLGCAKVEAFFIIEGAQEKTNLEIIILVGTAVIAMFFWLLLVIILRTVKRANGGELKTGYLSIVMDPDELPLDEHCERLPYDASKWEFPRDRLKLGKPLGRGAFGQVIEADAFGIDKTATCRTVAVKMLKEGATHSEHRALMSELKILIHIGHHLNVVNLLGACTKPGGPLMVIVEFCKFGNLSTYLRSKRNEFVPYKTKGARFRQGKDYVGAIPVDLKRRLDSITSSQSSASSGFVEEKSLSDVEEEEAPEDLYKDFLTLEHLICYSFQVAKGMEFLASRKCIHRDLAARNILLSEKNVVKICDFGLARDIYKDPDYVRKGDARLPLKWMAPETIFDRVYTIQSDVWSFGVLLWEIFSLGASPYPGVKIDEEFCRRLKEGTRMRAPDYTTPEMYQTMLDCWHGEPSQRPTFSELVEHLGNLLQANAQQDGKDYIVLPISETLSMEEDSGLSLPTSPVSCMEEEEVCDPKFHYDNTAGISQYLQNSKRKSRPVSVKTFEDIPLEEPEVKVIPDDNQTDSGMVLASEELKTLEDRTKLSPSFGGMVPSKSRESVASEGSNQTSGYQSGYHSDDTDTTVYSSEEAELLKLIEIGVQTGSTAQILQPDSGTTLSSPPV
Sequence of CDK8 (P49336 whole entry): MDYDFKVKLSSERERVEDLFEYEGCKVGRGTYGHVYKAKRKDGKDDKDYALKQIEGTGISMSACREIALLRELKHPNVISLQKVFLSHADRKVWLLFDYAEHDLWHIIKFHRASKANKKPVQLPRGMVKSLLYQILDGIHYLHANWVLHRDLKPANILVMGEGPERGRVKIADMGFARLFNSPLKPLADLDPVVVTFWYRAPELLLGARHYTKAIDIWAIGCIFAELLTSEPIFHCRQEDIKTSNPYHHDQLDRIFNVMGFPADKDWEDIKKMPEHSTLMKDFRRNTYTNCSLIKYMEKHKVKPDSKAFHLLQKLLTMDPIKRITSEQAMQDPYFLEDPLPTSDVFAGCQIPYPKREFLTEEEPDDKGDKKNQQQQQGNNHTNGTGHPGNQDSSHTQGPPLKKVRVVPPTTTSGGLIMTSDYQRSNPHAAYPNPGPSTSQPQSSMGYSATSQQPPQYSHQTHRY
Sequence of CDK8 (P24863 whole entry partner): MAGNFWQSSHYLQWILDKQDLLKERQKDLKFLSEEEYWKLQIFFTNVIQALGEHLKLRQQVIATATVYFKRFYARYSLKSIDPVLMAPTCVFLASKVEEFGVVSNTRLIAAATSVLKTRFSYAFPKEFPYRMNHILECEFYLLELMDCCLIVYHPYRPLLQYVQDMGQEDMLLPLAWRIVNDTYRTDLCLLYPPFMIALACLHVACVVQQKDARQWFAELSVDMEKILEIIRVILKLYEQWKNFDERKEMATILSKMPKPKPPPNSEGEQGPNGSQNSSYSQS
Sequence of PDGFR-β (P09619 33-1106): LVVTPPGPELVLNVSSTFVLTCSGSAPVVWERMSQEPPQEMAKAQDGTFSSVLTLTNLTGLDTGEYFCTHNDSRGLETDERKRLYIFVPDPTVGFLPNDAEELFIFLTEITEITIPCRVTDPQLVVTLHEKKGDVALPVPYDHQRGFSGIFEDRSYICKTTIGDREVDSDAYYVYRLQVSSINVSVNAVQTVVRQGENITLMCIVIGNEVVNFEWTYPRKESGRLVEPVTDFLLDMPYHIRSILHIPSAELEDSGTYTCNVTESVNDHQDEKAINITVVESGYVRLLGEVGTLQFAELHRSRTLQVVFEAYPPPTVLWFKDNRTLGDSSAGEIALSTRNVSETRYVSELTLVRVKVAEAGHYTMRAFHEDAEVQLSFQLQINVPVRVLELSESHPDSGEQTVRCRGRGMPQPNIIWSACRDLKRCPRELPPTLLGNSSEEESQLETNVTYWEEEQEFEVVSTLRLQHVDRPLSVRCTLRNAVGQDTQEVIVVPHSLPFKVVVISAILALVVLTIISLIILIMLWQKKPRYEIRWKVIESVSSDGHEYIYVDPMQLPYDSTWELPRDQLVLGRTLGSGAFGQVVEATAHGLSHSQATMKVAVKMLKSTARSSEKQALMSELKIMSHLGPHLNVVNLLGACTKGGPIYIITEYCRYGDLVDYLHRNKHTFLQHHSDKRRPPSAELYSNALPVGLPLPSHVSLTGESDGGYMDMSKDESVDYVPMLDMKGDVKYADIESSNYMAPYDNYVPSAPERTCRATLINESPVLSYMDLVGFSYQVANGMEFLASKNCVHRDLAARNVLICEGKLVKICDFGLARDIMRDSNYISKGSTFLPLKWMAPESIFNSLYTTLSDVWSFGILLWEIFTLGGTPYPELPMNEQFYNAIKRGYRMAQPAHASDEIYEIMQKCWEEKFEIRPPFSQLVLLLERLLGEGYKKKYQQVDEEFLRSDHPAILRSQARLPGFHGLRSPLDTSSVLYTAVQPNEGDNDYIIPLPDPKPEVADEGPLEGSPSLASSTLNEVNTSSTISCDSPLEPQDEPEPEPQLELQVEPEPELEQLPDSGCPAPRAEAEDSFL
Sequence of PDGFR-α (P16234 24-1089): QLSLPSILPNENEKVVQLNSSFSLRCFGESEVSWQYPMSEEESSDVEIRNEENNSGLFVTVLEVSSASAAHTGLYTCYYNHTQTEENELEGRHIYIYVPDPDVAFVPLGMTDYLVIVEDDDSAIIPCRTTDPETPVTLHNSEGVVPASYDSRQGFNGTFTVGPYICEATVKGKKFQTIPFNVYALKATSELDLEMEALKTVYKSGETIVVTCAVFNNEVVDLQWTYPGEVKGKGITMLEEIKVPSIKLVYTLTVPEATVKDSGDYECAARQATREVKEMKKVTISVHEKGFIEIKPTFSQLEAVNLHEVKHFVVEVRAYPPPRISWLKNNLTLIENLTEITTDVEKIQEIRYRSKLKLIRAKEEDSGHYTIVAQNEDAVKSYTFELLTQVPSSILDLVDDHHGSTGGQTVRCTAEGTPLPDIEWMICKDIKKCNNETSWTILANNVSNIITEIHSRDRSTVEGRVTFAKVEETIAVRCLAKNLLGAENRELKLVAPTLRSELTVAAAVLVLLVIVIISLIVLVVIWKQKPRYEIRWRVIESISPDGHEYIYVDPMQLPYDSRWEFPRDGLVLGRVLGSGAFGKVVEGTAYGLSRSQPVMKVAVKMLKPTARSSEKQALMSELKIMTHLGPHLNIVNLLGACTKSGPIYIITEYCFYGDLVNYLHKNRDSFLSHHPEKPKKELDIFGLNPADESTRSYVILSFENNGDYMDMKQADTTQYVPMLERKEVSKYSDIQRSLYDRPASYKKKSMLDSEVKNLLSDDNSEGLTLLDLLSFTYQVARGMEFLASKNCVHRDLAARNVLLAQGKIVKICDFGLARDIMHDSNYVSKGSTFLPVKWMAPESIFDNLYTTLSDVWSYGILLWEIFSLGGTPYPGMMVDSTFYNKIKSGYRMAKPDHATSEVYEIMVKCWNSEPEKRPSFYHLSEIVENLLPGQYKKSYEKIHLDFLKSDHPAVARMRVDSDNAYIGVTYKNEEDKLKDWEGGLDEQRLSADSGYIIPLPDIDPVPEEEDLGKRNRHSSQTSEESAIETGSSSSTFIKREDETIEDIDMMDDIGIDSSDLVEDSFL
Sequence of CDK19 (Q9BWU1 whole entry): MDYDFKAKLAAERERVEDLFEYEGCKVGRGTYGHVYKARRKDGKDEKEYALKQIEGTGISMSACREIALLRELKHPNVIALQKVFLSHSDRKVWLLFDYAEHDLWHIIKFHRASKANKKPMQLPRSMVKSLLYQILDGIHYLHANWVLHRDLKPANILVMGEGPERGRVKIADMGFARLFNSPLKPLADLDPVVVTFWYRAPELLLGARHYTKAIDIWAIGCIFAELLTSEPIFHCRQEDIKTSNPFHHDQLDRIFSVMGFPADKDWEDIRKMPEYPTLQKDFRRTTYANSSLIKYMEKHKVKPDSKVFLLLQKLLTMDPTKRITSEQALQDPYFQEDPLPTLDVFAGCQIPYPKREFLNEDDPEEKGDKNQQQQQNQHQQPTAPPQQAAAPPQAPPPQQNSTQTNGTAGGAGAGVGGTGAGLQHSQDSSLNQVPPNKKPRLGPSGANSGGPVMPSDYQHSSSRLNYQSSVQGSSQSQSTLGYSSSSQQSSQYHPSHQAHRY
Sequence of CDK19 (P24863 whole entry partner): as the sequence (P24863 whole entry partner) above

On to `Cn1nc(NC(=O)COc2ccc(-c3cnc4ccccn34)cn2)cc1C(F)(F)F` [Example 1], for which, in assay [1], the “Inhibition of PDGFRβ signaling (PDGFRβ autophosphorylation and Shp2 phosphorylation, Western blot)” value is “able to inhibit PDGFRβ signaling”. In assay [2], the “Activity compared to the imatinib and quizartinib controls (cell viability)” value was “improved activity”. The IC50 in [3] was less than 0.5 µM.

For `Cc1ccc(NC(=O)COc2ccc(-c3cnc4ccccn34)cn2)cc1C(F)(F)F` [Example 2], in [1], the “Inhibition of PDGFRβ signaling (PDGFRβ autophosphorylation and Shp2 phosphorylation, Western blot)” value is “able to inhibit PDGFRβ signaling”. Besides, the IC50 in [2] is less than 0.5 µM; in assay [4], less than 500 nM.

For `Cc1cnc(NC(=O)COc2ccc(-c3cnc4cnccn34)cn2)cc1C(F)(F)F` [Example 3], the “Activity compared to the imatinib and quizartinib controls (cell viability)” value in assay [2] was “improved activity”. Moreover, the IC50 in assay [2] was less than 0.5 µM; in [5] it was less than 500 nM; in assay [6], less than 500 nM; in [4], less than 500 nM; in [7] it was less than 500 nM; in assay [8], less than 500 nM. Further, the IC50 in assay [9] is less than 500 nM.

For the molecule `Cc1ccc(NC(=O)COc2ccc(-c3cnc4cnccn34)c(F)n2)cc1C(F)(F)F` [Example 7], in assay [3], the IC50 is less than 0.5 µM.

Consider `Cc1cnc(NC(=O)COc2ccc(-c3cnc4ccccn34)cn2)cc1C(F)(F)F` [Example 8], for which the IC50 in assay [2] was less than 0.5 µM; in assay [5] it was less than 500 nM; in assay [6], less than 500 nM; in assay [4], less than 500 nM; in [7], less than 500 nM; in assay [8], less than 500 nM. Further, the IC50 in assay [9] was less than 500 nM.

For `Cn1nc(NC(=O)COc2ccc(-c3cnc4cnccn34)cn2)cc1C(F)(F)F` [Example 9], the IC50 in [2] is less than 0.5 µM.

Turning to `Cc1ccc(NC(=O)CNc2ccc(-c3cnc4cnccn34)cc2)cc1C(F)(F)F` [Example 15], the IC50 in assay [3] was less than 0.5 µM.

With `O=C(Nc1ccc(-c2cnc3cnccn23)cc1)C1(C(=O)Nc2cc(C(F)(F)F)c(Cl)cn2)CC1` [Example 20], the IC50 in assay [5] is less than 500 nM; in assay [6] it was less than 500 nM; in assay [4], greater than 5000 nM; in assay [7], greater than 5000 nM; in assay [8], greater than 5000 nM; in assay [9], greater than 5000 nM.

Take `Cn1nc(NC(=O)C2(C(=O)Nc3ccc(-c4cnc5cnccn45)cc3)CC2)cc1C(F)(F)F` [Example 21]: the IC50 in [5] was less than 500 nM; in assay [6] it was less than 500 nM; in [4], greater than 5000 nM; in [7] it was greater than 5000 nM; in [8] it was greater than 5000 nM; in assay [9], greater than 5000 nM.

`Cn1nc(NC(=O)C2(C(=O)Nc3ccc(-c4cnc5cnccn45)c(F)c3)CC2)cc1C(F)(F)F` [Example 22]: the IC50 in [5] was less than 500 nM; in assay [6] it was less than 500 nM; in assay [4], greater than 5000 nM; in [7] it was greater than 5000 nM; in assay [8], greater than 5000 nM; in [9], 500 to 5000 nM.

The values above are taken from patent publication US20220315587A1, “COMPOUNDS FOR TREATMENT OF CANCER” (SINOPSEE THERAPEUTICS, priority 2019, published 2022).
